Data on six compounds can be found in PMC9687610, “Adenosine-Mimicking Derivatives of 3-Aminopyrazine-2-Carboxamide: Towards Inhibitors of Prolyl-tRNA Synthetase with Antimycobacterial Activity” (Biomolecules, 2022).

In data set [1] the test system is Pseudomonas aeruginosa CCM 3955 (ATCC 27853). In words: Antibacterial microdilution broth (EUCAST), PA. Format: cell-based. The following applies: Pseudomonas aeruginosa.
The test system of data set [2] is Escherichia coli CCM 3954 (ATCC 25922). In words: Antibacterial microdilution broth (EUCAST), EC. The following applies: Escherichia coli. Format: cell-based.
In data set [3] the test system is Trichophyton interdigitale CCM 8377 (ATCC 9533). In words: Antifungal microdilution broth (EUCAST), TI. The following applies: Trichophyton interdigitale. Format: cell-based. In general terms: Dilution methods test growth across graded concentrations, often in twofold steps.
Data set [4] has as its system Candida krusei CCM 8271 (ATCC 6258). In words: Antifungal microdilution broth (EUCAST), CK. Format: cell-based. Particulars: Pichia kudriavzevii.
The test system of data set [5] is Aspergillus flavus CCM 8363. In words: Antifungal microdilution broth (EUCAST), AFla. Format: cell-based. Particulars: Aspergillus flavus, CCM8363.
In data set [6] the test system is Lichtheimia corymbifera CCM 8077. The data set is described as follows: Antifungal microdilution broth (EUCAST), LC. Format: cell-based. Particulars: Lichtheimia corymbifera, CCM8077.
Data set [7] relates to Mycobacterium smegmatis DSM 43465 (ATCC 607). In words: Microplate Alamar Blue Assay (MABA), M. smegmatis. Format: cell-based. Particulars: Mycolicibacterium smegmatis; MABA, resazurin after 48 h; read-out: M. smegmatis MIC. Background: Resazurin is reduced to fluorescent resorufin, in cell work by metabolically active cells.
Data set [8] deals with Enterococcus faecalis CCM 4224 (ATCC 29212). The data set is described as follows: Antibacterial microdilution broth (EUCAST), EF. It counts as cell-based. The following applies: Enterococcus faecalis.
Data set [9] relates to Staphylococcus aureus subsp. aureus methicillin-resistant (MRSA) CCM 4750 (ATCC 43300). The data set is described as follows: Antibacterial microdilution broth (EUCAST), MRSA. Format: cell-based. The following applies: Staphylococcus aureus.
Data set [10] concerns Staphylococcus aureus subsp. aureus CCM 4223 (ATCC 29213). The data set is described as follows: Antibacterial microdilution broth (EUCAST), SA. It counts as cell-based. The following applies: Staphylococcus aureus.
The test system of data set [11] is Candida tropicalis CCM 8264 (ATCC 750). The data set is described as follows: Antifungal microdilution broth (EUCAST), CT. It counts as cell-based. Particulars: Candida tropicalis.
Data set [12] concerns Candida parapsilosis CCM 8260 (ATCC 22019). In words: Antifungal microdilution broth (EUCAST), CP. Format: cell-based. Particulars: Lodderomyces parapsilosis.
The subject of data set [13] is HepG2 human hepatocellular carcinoma cells. The data set is described as follows: In vitro HepG2 cytotoxicity (CellTiter 96). Particulars: Homo sapiens, HepG2, 24 h, read-out: HepG2 IC50, 24 h incubation; * limit = highest evaluated concentration (precipitation in medium); ** over the 1000 µM limit.
Data set [14] relates to Staphylococcus epidermidis CCM 4418 (ATCC 12228). The data set is described as follows: Antibacterial microdilution broth (EUCAST), SE. It counts as cell-based.
Data set [15] has as its system Klebsiella pneumoniae CCM 4415 (ATCC 10031). The data set is described as follows: Antibacterial microdilution broth (EUCAST), KP. The following applies: for KP MIC: read after 24 h; for MIC: Klebsiella pneumoniae.
For data set [16], the system named is M. aurum DSM 43999 (ATCC 23366). In words: Microplate Alamar Blue Assay (MABA), M. aurum. Format: cell-based. Particulars: Mycolicibacterium aurum; MABA, resazurin after 72 h; read-out: M. aurum MIC.
For data set [17], the system named is Acinetobacter baumannii DSM 30007 (ATCC 19606). In words: Antibacterial microdilution broth (EUCAST), ACI. Format: cell-based. The following applies: Acinetobacter baumannii.
In data set [18] the test system is Candida albicans CCM 8320 (ATCC 24433). In words: Antifungal microdilution broth (EUCAST), CA. It counts as cell-based. Particulars: Candida albicans.
Data set [19] concerns Aspergillus fumigatus ATCC 204305. In words: Antifungal microdilution broth (EUCAST), AF. It counts as cell-based. Particulars: Aspergillus fumigatus, ATCC204305.
In data set [20] the test system is Mycobacterium tuberculosis H37Ra ITM-M006710 (ATCC 9431). In words: Microplate Alamar Blue Assay (MABA), Mtb H37Ra. It counts as cell-based. The following applies: Mycobacterium tuberculosis, 120 h, pH 6.6, MABA, Middlebrook 7H9 broth pH 6.6, resazurin after 120 h; read-out: Mtb H37Ra MIC.
Setting [21] is: read after 24 h, read-out: PA MIC.
Where [22] appears, read: read after 24 h, read-out: EC MIC.
[23] abbreviates: read after 24 h, read-out: CK MIC.
The mark [24] stands for this setting: read after 24 h, read-out: AFla MIC.
[25] abbreviates: read after 24 h, read-out: LC MIC.
The mark [26] stands for this setting: read after 24 h, read-out: EF MIC.
Setting [27] is: read after 24 h, read-out: MRSA MIC.
The mark [28] stands for this setting: read after 24 h, read-out: SA MIC.
Setting [29] is: read after 24 h, read-out: CT MIC.
[30] abbreviates: read after 24 h, read-out: CP MIC.
Where [31] appears, read: read after 24 h, read-out: SE MIC.
The mark [32] stands for this setting: read after 24 h, read-out: ACI MIC.
Setting [33] is: read after 24 h, read-out: CA MIC.
The mark [34] stands for this setting: read after 24 h, read-out: AF MIC.
[35] abbreviates: internal quality control, 90% growth inhibition, 48 h (moulds), 530 nm, read-out: MIC, spectrophotometric detection*.
Setting [36] is: internal quality control, no visible growth, 48 h (moulds), read-out: MIC, visual detection**.
Setting [37] is: internal quality control, 90% growth inhibition, 24 h, 530 nm, read-out: MIC, spectrophotometric detection*.
Setting [38] is: internal quality control, no visible growth, 24 h, read-out: MIC, visual detection**.
Setting [39] is: internal quality control, 50% growth inhibition, 48 h (moulds), 530 nm, read-out: MIC, spectrophotometric detection***.
Setting [40] is: internal quality control, 50% growth inhibition, 24 h, 530 nm, read-out: MIC, spectrophotometric detection***.
The mark [41] stands for this setting: internal quality control, 95% growth inhibition, 24 h, 530 nm, read-out: MIC, spectrophotometric detection.
[42] abbreviates: internal quality control, no visible growth, 24 h, read-out: MIC, visual detection.

In brackets after ≈: the same amount, converted by molar mass. Read-outs that look alike come from different tables or passages of the source.

For orientation: MIC means the lowest concentration that inhibits growth of the organism. The term IC50 denotes the concentration that gives 50% inhibition. For `NC(=O)c1nccnc1NC(=O)C12CC3CC(CC(C3)C1)C2` [Compound 28], the MIC in [1] (setting [21]) is > 500 µM; in data set [2] (setting [22]) it was > 500 µM; in data set [3] (72 h, read-out: TI MIC), 125 µM; in [4] (setting [23]), 500 µM; in [5] (setting [24]), > 500 µM; in [6] (setting [25]), > 500 µM. Moreover, the MIC is 125 µg/mL (≈ 416 µM) in [7]; > 500 µM in [8] (setting [26]); > 500 µM in data set [9] (setting [27]); > 500 µM in [10] (setting [28]); > 500 µM in [11] (setting [29]); > 500 µM in data set [12] (setting [30]). The MIC is > 500 µM in data set [14] (setting [31]); 125 µg/mL (≈ 416 µM) in data set [16]; > 500 µM in [17] (setting [32]); 500 µM in data set [18] (setting [33]); > 500 µM in data set [19] (setting [34]); 31.2 µg/mL (≈ 104 µM) in data set [20]. For the same compound, the half-maximal inhibitory concentration (IC50) in data set [13] was found to be 367 µM. Further, the “KP MIC” value in [15] is recorded as > 500 µM.

For `C[C@@H]1[C@H](O)[C@@H](C)/C=C/C=C/C=C/C=C/C=C/C=C/C=C/[C@H](O[C@@H]2O[C@H](C)[C@@H](O)[C@H](N)[C@@H]2O)C[C@@H]2O[C@](O)(C[C@@H](O)C[C@@H](O)[C@H](O)CC[C@@H](O)C[C@@H](O)CC(=O)O[C@H]1C)C[C@H](O)[C@H]2C(=O)O` [amphotericin B, reference compound], the MIC in data set [3] (setting [35]) was 1 µg/mL; in data set [3] (setting [36]) it was 1 µg/mL; in data set [4] (setting [37]) it was 0.5 µg/mL; in data set [4] (setting [38]), 0.5 µg/mL; in [5] (setting [35]) it was 4 µg/mL; in [5] (setting [36]) it was 4 µg/mL. Further, the minimal inhibitory concentration (MIC) in data set [6] (setting [35]) came to 0.125 µg/mL; in [6] (setting [36]), 0.125 µg/mL; in [11] (setting [37]), 1 µg/mL; in data set [11] (setting [38]), 1 µg/mL; in [12] (setting [37]), 0.5 µg/mL; in [12] (setting [38]), 0.5 µg/mL. In addition, the minimum inhibitory concentration (MIC) in data set [18] (setting [37]) was 0.5 µg/mL; in [18] (setting [38]), 0.5 µg/mL; in [19] (setting [35]), 1 µg/mL; in data set [19] (setting [36]), 1 µg/mL.

As to `C[C@@H](c1ncncc1F)[C@](O)(Cn1cncn1)c1ccc(F)cc1F` [voriconazole, reference compound], the MIC is > 16 µg/mL in [3] (setting [39]); > 16 µg/mL in [3] (setting [36]); 0.25 µg/mL in data set [4] (setting [40]); > 16 µg/mL in [4] (setting [38]); 1 µg/mL in data set [5] (setting [39]); > 16 µg/mL in data set [5] (setting [36]). In addition, the MIC in [6] (setting [39]) was > 16 µg/mL; in [6] (setting [36]), > 16 µg/mL; in [11] (setting [40]) it was 0.0625 µg/mL; in data set [11] (setting [38]) it was > 16 µg/mL; in [12] (setting [40]) it was 0.03 µg/mL; in data set [12] (setting [38]), > 16 µg/mL. The MIC is 0.03 µg/mL in data set [18] (setting [40]), > 16 µg/mL in [18] (setting [38]), 0.25 µg/mL in data set [19] (setting [39]) and 1 µg/mL in data set [19] (setting [36]).

Consider `NC(=O)c1nccnc1NC(=O)c1ccccc1` [Compound 1], for which the minimal inhibitory concentration (MIC) was > 500 µM in data set [1] (setting [21]); > 500 µM in data set [2] (setting [22]); > 500 µM in [3] (72 h, read-out: TI MIC); > 500 µM in data set [4] (setting [23]); > 500 µM in data set [5] (setting [24]); > 500 µM in data set [6] (setting [25]). The MIC in data set [7] is ≥ 500 µg/mL; in data set [8] (setting [26]), > 500 µM; in [9] (setting [27]), > 500 µM; in data set [10] (setting [28]) it was > 500 µM; in [11] (setting [29]) it was > 500 µM; in [12] (setting [30]) it was > 500 µM. Further, the minimal inhibitory concentration (MIC) in data set [14] (setting [31]) was > 500 µM; in data set [16], ≥ 500 µg/mL; in data set [17] (setting [32]), > 500 µM; in [18] (setting [33]) it was > 500 µM; in data set [19] (setting [34]) it was > 500 µM; in data set [20], 250 µg/mL (≈ 1030 µM). The IC50 in data set [13] is > 250 µM. Also, in [15], the “KP MIC” value is > 500 µM.

For the compound `CNC(C)C1CCC(N)C(OC2C(N)CC(N)C(OC3OCC(C)(O)C(NC)C3O)C2O)O1` (centres unmarked) [gentamicin, reference compound], the MIC in [1] (setting [41]) is 0.5 µg/mL; in data set [1] (setting [42]), 0.5 µg/mL; in [2] (setting [41]) it was 1 µg/mL; in [2] (setting [42]) it was 1 µg/mL; in data set [8] (setting [41]), > 8 µg/mL; in [8] (setting [42]) it was > 8 µg/mL. Besides, the minimum inhibitory concentration (MIC) in data set [9] (setting [41]) was > 8 µg/mL; in data set [9] (setting [42]), > 8 µg/mL; in data set [10] (setting [41]), 1 µg/mL; in data set [10] (setting [42]), 0.5 µg/mL; in data set [14] (setting [41]) it was 0.125 µg/mL; in data set [14] (setting [42]) it was 0.125 µg/mL. Moreover, the minimum inhibitory concentration (MIC) in data set [15] (24 h, read-out: MIC, visual detection) worked out at 0.5 µg/mL (≈ 1.05 µM); in [15] (ATCC10031|CCM4415, 24 h, read-out: MIC, spectrophotometric detection), 0.5 µg/mL (≈ 1.05 µM); in data set [17] (setting [41]) it was 8 µg/mL; in data set [17] (setting [42]), 8 µg/mL.

Take `O=C(NC1Cc2ccccc2C1)c1nccnc1NC(=O)C1CCCCC1` [Compound 38, reference compound]: the MIC in data set [7] was ≥ 500 µg/mL; in data set [16], ≥ 500 µg/mL; in [20], 62.5 µg/mL (≈ 171 µM). Also, in data set [13], the 50% inhibitory concentration (IC50) worked out at 19.6 µM.
